According to US20210283217A1, “NEUROMODULATING COMPOSITIONS AND RELATED THERAPEUTIC METHODS FOR THE TREATMENT OF INFLAMMATORY AND AUTOIMMUNE DISEASES” (Flagship Pioneering Innovations V, Inc., priority 2016, published 2021):

Assays:
[1] = Treatment of multiple sclerosis patient, MRI lesions; assay type: in vivo, human; conditions: MS patient; oral 5 mg/day; MRI 3-6 month after treatment initiation
Method: A patient is diagnosed with multiple sclerosis (MS) by MRI criteria of >2 lesions. The patient is treated orally with propranolol at a dose regimen of 5 mg/day. An MRI scan is administered 3-6 month after treatment initiation. Further MRI scans are obtained at intervals of 6-12 months.

NK cells = test: NK cell ADCC against trastuzumab-coated Her2 expressing target cells; assay type: cell-based, human; conditions: compared with NK cells pre-treated with beta adrenergic antagonist (nadolol or propranolol) prior to the agonist
Method: Primary Natural Killer (NK) cells are isolated from human peripheral blood using a magnetic bead-based separation kit that negatively selects NK cells by sequestering other defined cell types (T, B, monocytes, etc.). Isolated NK cells are incubated with a target cell line, for example a Her2 expressing cancer cell line that has been pre-coated with trastuzumab, an anti-Her2 antibody, at a range of target-to-effector cell ratios. Following antibody-dependent cell cytotoxicity (ADCC)—antibody-mediated killing of the target cells by the NK cells, the number of surviving target cells is assessed by a fluorescent viability stain.

primary human T cells = test: T cell activation and cytokine secretion assay (LEGENDplex); assay type: cell-based
Method: Peripheral blood mononuclear cells (PBMCs) were isolated from whole blood by ficoll density separation. Briefly, blood was diluted 1:2 with 0.5 mM EDTA solution in PBS, loaded onto a Ficoll-filled Leucosep tube (Greiner Bio-One), and centrifuged for 20 minutes at 1000×g. After centrifugation, the leukocyte/PBMC layer on top of the separation medium was collected and sequentially washed three times with 0.5 mM EDTA solution in PBS. T cells were isolated from PBMCs using magnetic bead-based separation following vendor specification, e.g., Biolegend MojoSort Human CD4/CD8 Naïve T Cell Isolation Kit protocol. In brief, the PBMCs were labeled with biotinylated antibodies against cell surface receptors for cells not in the population of interest. The labeled cells are then captured by streptavidin-coated magnetic beads and removed by magnetic incubation. The uncaptured cells that flow through the magnetic separation are predominantly comprised of the population of interest, in this instance CD3+ T cells. T cells were stained with a 5 μM solution of Tag-it Violet™ dye (BioLegend) for 20 minutes protected from light. The stain was quenched by incubating the cells in cell culture medium containing 10% FBS (complete media). Stained cells were plated on tissue culture plates and sub-maximally activated with concanavalin A (con A) added to the culture medium. Cells were plated at 0.1×10^6 cells well. […] Cells were collected at 24, 48, and 72 hrs. Supernatants were collected at 24, 48, and 72 hrs and cytokine secretion was analyzed by flow cytometry using a LEGENDplex assay (BioLegend). In brief, following manufacturer's protocol, beads pre-coated with antibodies specific to various cytokines were incubated with cell supernatant. […] The beads were then stained and the captured cytokine composition assessed by flow cytometry.

[2] = test system: T cells in the lymph node; test: Lymph node remodeling by hock injection, flow cytometry of lymph node cells; assay type: in vivo, C57BL/6J mice; conditions: hock injection 48.5 nmol followed by quinpirole 0.1 nmol; 24 hours
Method: 24 hours after hock injection, brachial lymph nodes (LN) were harvested in culture medium (RPMI+10% FBS). LNs were transferred to 24-well tissue culture plates containing 0.5 mL LN digestion buffer (RPMI, 2% FBS, collagenase D (3.3 mg/mL), and DNAse I (40 ug/mL)). LN capsules were manually opened with two syringe (26G) needles and the LNs were incubated in digestion buffer for 15 minutes. Digested LNs were filtered with a 40 μM cell strainer and tissues were smashed with the plunger of a 5 mL syringe. Collected cells were washed in culture medium and plated for assays. Total number of viable cells were assessed by staining with viability dye eFluor 780 (eBioscience). Surface markers of various immune cell subsets were analyzed by staining the cells with antibodies for cell identity (CD3, CD4, CD8, CD19), for the inflammatory marker CD69, and the migratory marker CCR7. The cells were then assayed by flow cytometry.

macrophages = test: Macrophage activation and cytokine secretion assay (M1/M2 polarization); assay type: cell-based, human
Method: Peripheral blood mononuclear cells (PBMCs) were isolated from whole blood by ficoll density separation. Briefly, blood was diluted 1:2 with 0.5 mM EDTA solution in PBS, loaded onto a Ficoll-filled Leucosep tube (Greiner Bio-One), and centrifuged for 20 minutes at 1000×g. After centrifugation, the leukocyte/PBMC layer was collected and sequentially washed three times with 0.5 mM EDTA solution in PBS.
Monocytes (CD14+) were isolated from PBMCs using magnetic bead-based separation following vendor specifications, e.g., Biolegend MojoSort Human CD14 Selection Kit protocol. In brief, PBMCs were labeled with biotinylated antibodies against cell surface receptors for cells not in the population of interest. The labeled cells are then captured by streptavidin-coated magnetic beads and removed by magnetic incubation. The uncaptured cells that flow through the magnetic separation are predominantly comprised of the population of interest, in this case CD14+ monocytes.
Monocytes were differentiated into macrophages by culturing in DMEM complete medium containing 10% FBS for seven days in the presence of 40 ng/mL human M-CSF. Media was changed on day 1 and day 4. On Day 4, macrophages were polarized to various subtypes as follows: M0—incubated with 40 ng/mL M-CSF; M1—cultured with 40 ng/mL M-CSF, 20 ng/mL IFNγ, and 50 ng/mL LPS; M2—incubated with 40 ng/mL M-CSF, 20 ng/mL IL4, 20 ng/mL IL10, and 20 ng/mL TFGB. On day 7, cells were harvested by scraping them from the tissue culture plates and transferring them to 96-well plates.
Supernatants were collected at 24, 48, and 72 hrs and cytokine secretion was analyzed by flow cytometry using a LEGENDplex assay (BioLegend). In brief, following manufacturer's protocol, beads that are pre-coated with antibodies specific to various cytokines were incubated with cell supernatant. […] The beads were then stained and the captured cytokine composition assessed by flow cytometry.
M1 macrophage polarization is defined as increase in production of IL-12, TNF, IL-6, IL-8, IL-1B, MCP-1 and CCL2. Additionally, markers of M1 polarization that can be detected by RNA include Nos2. M2 polarization is defined as increase in IL-10 and/or a decrease in the M1 cytokines listed above. Additionally, markers of M2 polarization that can be detected by RNA include Arg1, IDO, PF4, CCL24, IL10, and IL4Ralpha.

[3] = low sub-nanomolar concentrations, 72 hours post treatment
[4] = T cells from two different donors, 72 hours
[5] = T cells from two different donors, multiple time points

CC(C)NCC(O)COc1cccc2ccccc12 (centres unmarked) [propranolol]
Gadolinium (Gd)-enhancing T1 lesions and/or new or enlarging (active) T2 lesions [1]: decrease

CC(C)NCC(O)c1cc(O)cc(O)c1 (centres unmarked) [metaproterenol]
ADCC induced by treated NK cells (NK cells): significantly less ADCC

NCCc1ccc(O)c(O)c1 [dopamine, Dopamine]
T cell production of pro-survival cytokine IL-2 (primary human T cells; 24 and 48 hours post-treatment, nanomolar concentrations): increase
T cell production of pro-inflammatory cytokine IFNγ (primary human T cells; [3]): increase
T cell production of pro-inflammatory cytokine IL-5 (primary human T cells; [3]): increase
T cell production of pro-inflammatory cytokine IL-6 (primary human T cells; [3]): increase
T cell production of pro-inflammatory cytokine IL-10 (primary human T cells; [3]): increase
T cell production of pro-inflammatory cytokine IL-13 (primary human T cells; [3]): increase

neuropeptide Y
T cell production of cytokine IL-4 (primary human T cells; sub-nanomolar concentrations, 48 hours post-treatment): increase

O=C(CCCN1CCC(O)(c2ccc(Cl)cc2)CC1)c1ccc(F)cc1 [haloperidol, Haloperidol]
quinpirole-induced increase of CCR7+ T cells in the lymph node after pre-treatment with antagonist [2]: inhibited

CC(C)NCC(O)c1ccc(O)c(O)c1 (centres unmarked) [isoproterenol]
transcript of NOS2 in macrophages (macrophages; M1 marker): decrease
transcript for Arg1 in macrophages (macrophages; M2 marker): increase
transcript for IL-10 in macrophages (macrophages; M2 marker): increase
macrophage polarization phenotype (macrophages; monocyte-derived macrophages, dilutions from 10 μM to 1 nM): polarized toward an M2 phenotype
T cell production of pro-inflammatory cytokine IFNγ (FIG. 6A) (primary human T cells; [4]): decreased
T cell production of pro-inflammatory cytokine IL-10 (FIG. 6C) (primary human T cells; [4]): decreased
T cell production of pro-inflammatory cytokine TNFα (FIG. 6B) (primary human T cells; [4]): decreased
T cell production of pro-inflammatory cytokine IFNγ (primary human T cells; [5]): decrease
T cell production of pro-inflammatory cytokine IL-10 (primary human T cells; [5]): decrease
T cell production of pro-inflammatory cytokine TNFα (primary human T cells; [5]): decrease
